For 29 compounds, EC50 results are on record in patent US8309552B2, “Immunomodulating heterocyclic compounds” (Medigene AG, priority 2003, dated 2012).

Where only a bound is given, the exact number is not on record here.

For the assay, the target named is T1, CD80-CD28 interaction (Homo sapiens, UniProt P33681).
T1 sequence (P33681 35-242 limits assumed): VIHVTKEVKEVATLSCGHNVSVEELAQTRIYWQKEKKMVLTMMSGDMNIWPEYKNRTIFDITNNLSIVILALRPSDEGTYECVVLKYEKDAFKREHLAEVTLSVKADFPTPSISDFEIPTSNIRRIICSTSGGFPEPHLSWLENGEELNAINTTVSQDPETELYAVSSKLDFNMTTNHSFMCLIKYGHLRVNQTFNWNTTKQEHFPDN
The experiment in a line: Homogenous Time Resolved Fluorescence (HTRF) assay, cell free. It counts as binding. The conditions noted are these: cell-free HTRF, compound concentration series 100 μM-1.7 nM, 4 hours at room temperature; read-out: Activity (EC50 in the HTRF assay). The procedure:
Homogenous Time Resolved Fluorescence Assay
The examples described above were tested in a cell free Homogenous Time Resolved Fluorescence (HTRF) assay to determine their activity as inhibitors of the CD80-CD28 interaction.
In the assay, europium and allophycocyanin (APC) are associated with CD28 and CD80 indirectly (through antibody linkers) to form a complex, which brings the europium and APC into close proximity to generate a signal. The complex comprises the following six proteins: fluorescent label 1, linker antibody 1, CD28 fusion protein, CD80 fusion protein, linker antibody 2, and fluorescent label 2. The table below describes these reagents in greater detail.
On formation of the complex, europium and APC are brought into proximity and a signal is generated.
Non-specific interaction was measured by substituting a mouse Fab fragment (C215) for the CD80 mouse Fab fragment fusion protein (1.9 μg/ml). The assay was carried out in black 384 well plates in a final volume of 30 μl. Assay buffer: 50 mM Tris-HCl, 150 mM NaCl pH7.8, containing 0.1% BSA (w/v) added just prior to use.
Compounds were added to the above reagents in a concentration series ranging between 100 μM-1.7 nM. The reaction was incubated for 4 hours at room temperature. Dual measurements were made using a Wallac Victor 1420 Multilabel Counter. First measurement: excitation 340 nm, emission 665 nm, delay 50 μs, window time 200 μs. second measurement: excitation 340 nm, emission 615 nm, delay 50 μs, window time 200 μs. Counts were automatically corrected for fluorescence crossover, quenching and background. The EC50 activities of compounds tested are recorded as: EC50:*=>10 μM,**=1-10 μM,***=<1 μM.
(In general: In TR-FRET formats the signal depends on donor and acceptor labels being close together.)
As usually defined, the EC50 is the midpoint of the concentration-response curve. Turning to `C=CCNC(=O)Nc1ccc(-n2[nH]c3c(nnc4ccccc43)c2=O)cc1` [Example 131], the EC50 was less than 1 µM.
With `O=C(NCCN1CCOCC1)Nc1ccc(-n2[nH]c3c(nnc4ccccc43)c2=O)cc1` [Example 132] the figure was less than 1 µM; with `COCCCNC(=O)Nc1ccc(-n2[nH]c3c(nnc4ccccc43)c2=O)cc1` [Example 133], 1 to 10 µM.
With `O=C(NCCCNC1CCCCC1)Nc1ccc(-n2[nH]c3c(nnc4ccccc43)c2=O)cc1` [Example 134] the figure was less than 1 µM; with `CN1C(C)(C)CC(NC(=O)Nc2ccc(-n3[nH]c4c(nnc5ccccc54)c3=O)cc2)CC1(C)C` [Example 135], 1 to 10 µM; with `CC(CCCC(C)(C)O)NC(=O)Nc1ccc(-n2[nH]c3c(nnc4ccccc43)c2=O)cc1` (centres unmarked) [Example 137], 1 to 10 µM.
To `CC(C)CNC(=O)Nc1ccc(-n2[nH]c3c(nnc4ccccc43)c2=O)cc1` [Example 138] belongs 1 to 10 µM.
As for `COCCNC(=O)Nc1ccc(-n2[nH]c3c(nnc4ccccc43)c2=O)cc1` [Example 140], the EC50 lay within 1 to 10 µM.
To `CC(C)NCCNC(=O)Nc1ccc(-n2[nH]c3c(nnc4ccccc43)c2=O)cc1` [Example 141] belongs less than 1 µM; to `CNCCNC(=O)Nc1ccc(-n2[nH]c3c(nnc4ccccc43)c2=O)cc1` [Example 142], less than 1 µM; to `CCNCCNC(=O)Nc1ccc(-n2[nH]c3c(nnc4ccccc43)c2=O)cc1` [Example 143], less than 1 µM.
To `CCCNCCNC(=O)Nc1ccc(-n2[nH]c3c(nnc4ccccc43)c2=O)cc1` [Example 144] belongs less than 1 µM.
To `O=C(NCCOCCO)Nc1ccc(-n2[nH]c3c(nnc4ccccc43)c2=O)cc1` [Example 145] belongs less than 1 µM; to `O=C(NCCO)Nc1ccc(-n2[nH]c3c(nnc4ccccc43)c2=O)cc1` [Example 146], less than 1 µM.
With `O=C(NCCc1ccccc1)Nc1ccc(-n2[nH]c3c(nnc4ccccc43)c2=O)cc1` [Example 147], the EC50 lay in the range of 1 to 10 µM.
With `CC(C)NCCCNC(=O)Nc1ccc(-n2[nH]c3c(nnc4ccccc43)c2=O)cc1` [Example 148] the figure was less than 1 µM; with `CC(C)OCCCNC(=O)Nc1ccc(-n2[nH]c3c(nnc4ccccc43)c2=O)cc1` [Example 149], 1 to 10 µM.
With `O=C(NCCCO)Nc1ccc(-n2[nH]c3c(nnc4ccccc43)c2=O)cc1` [Example 150] the figure was less than 1 µM.
To `O=C(NCCCCCO)Nc1ccc(-n2[nH]c3c(nnc4ccccc43)c2=O)cc1` [Example 151] belongs 1 to 10 µM.
Consider `O=C(NCCNc1cccc2ccccc12)Nc1ccc(-n2[nH]c3c(nnc4ccccc43)c2=O)cc1` [Example 152], for which the EC50 is more than 10 µM.
`O=C(Nc1ccc(-n2[nH]c3c(nnc4ccccc43)c2=O)cc1)NC1CCOC1=O` (centres unmarked) [Example 153]: the concentration for a half-maximal effect (EC50) fell in the range of 1 to 10 µM.
With `COC(=O)CNC(=O)Nc1ccc(-n2[nH]c3c(nnc4ccccc43)c2=O)cc1` [Example 154] the figure was 1 to 10 µM; with `O=C(NCCc1ccc([N+](=O)[O-])cc1)Nc1ccc(-n2[nH]c3c(nnc4ccccc43)c2=O)cc1` [Example 155], 1 to 10 µM; with `CCOC(=O)CCNC(=O)Nc1ccc(-n2[nH]c3c(nnc4ccccc43)c2=O)cc1` [Example 156], 1 to 10 µM.
To `NC(=O)CNC(=O)Nc1ccc(-n2[nH]c3c(nnc4ccccc43)c2=O)cc1` [Example 157] belongs 1 to 10 µM; to `CCOC(=O)C(C)NC(=O)Nc1ccc(-n2[nH]c3c(nnc4ccccc43)c2=O)cc1` (centres unmarked) [Example 158], 1 to 10 µM; to `CCCCCCCCCCCCOCCCNC(=O)Nc1ccc(-n2[nH]c3c(nnc4ccccc43)c2=O)cc1` [Example 159], less than 1 µM.
Take `CCCCOCCCNC(=O)Nc1ccc(-n2[nH]c3c(nnc4ccccc43)c2=O)cc1` [Example 160]: the EC50 is more than 10 µM.
To `CSCCCNC(=O)Nc1ccc(-n2[nH]c3c(nnc4ccccc43)c2=O)cc1` [Example 161] belongs 1 to 10 µM.
